Laboratory results published in PubChem BioAssay (NCI).
“And” between values parts separate entries of the source, which are not always exact repeats. Equal entries are not always repeated.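 48-hour exposure; five concentrations; linearly interpolated endpoints. GI50 marks 50% less growth. The concentration for full growth arrest is given as TGI.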

Columns and labels:
Experiment in all cases: growth of human tumour cells (NCI), 48 h
CCRF-CEM leukemia = test system: CCRF-CEM leukemia
MOLT-4 leukemia = test system: MOLT-4 leukemia
BT-549 breast = test system: BT-549 breast
NCI-H226 lung = test system: NCI-H226 lung
UO-31 renal = test system: UO-31 renal
UACC-62 melanoma = test system: UACC-62 melanoma
NCI/ADR-RES ovarian = test system: NCI/ADR-RES ovarian
PC-3 prostate = test system: PC-3 prostate
IGROV1 ovarian = test system: IGROV1 ovarian
OVCAR-4 ovarian = test system: OVCAR-4 ovarian

Row | SMILES | GI50 (CCRF-CEM leukemia) | TGI (CCRF-CEM leukemia) | GI50 (MOLT-4 leukemia) | TGI (MOLT-4 leukemia) | GI50 (BT-549 breast) | TGI (BT-549 breast) | GI50 (NCI-H226 lung) | TGI (NCI-H226 lung) | GI50 (UO-31 renal) | TGI (UO-31 renal) | GI50 (UACC-62 melanoma) | TGI (UACC-62 melanoma) | GI50 (NCI/ADR-RES ovarian) | TGI (NCI/ADR-RES ovarian) | GI50 (PC-3 prostate) | TGI (PC-3 prostate) | GI50 (IGROV1 ovarian) | TGI (IGROV1 ovarian) | GI50 (OVCAR-4 ovarian) | TGI (OVCAR-4 ovarian)
1 | Cn1nc(C(F)(F)F)c(-c2ccc(Cl)c(C(F)(F)F)c2)c1-c1ccc(OCc2ccc(Cl)cc2)cc1O | 1.85 µM | 6.81 µM | 1.81 µM | 6.2 µM | 1.54 µM | 6.51 µM | 1.73 µM | 6.84 µM | 1.26 µM | 4.39 µM | 1.58 µM | 5.8 µM | 1.56 µM | 4.99 µM | 1.66 µM | 6.68 µM | 2.18 µM | 8.47 µM | 1.62 µM | 6.13 µM
2 | O=C1c2ccccc2C(=O)c2c(NCCCNCCO)ccc(NCCCNCCO)c21 |  | 23.1 µM |  | 18.5 µM |  | 30.7 µM |  | 12.3 µM |  | 28.4 µM |  | 24.6 µM |  | > 100 µM |  | 22.6 µM |  | > 49 µM |  | 26.9 µM
3 | Nc1ncnc2c1c(C(F)(F)F)cn2[C@@H]1O[C@H](CO)[C@@H](O)[C@H]1O | 0.102 µM | > 100 µM | 0.324 µM | 1.48 µM | 0.192 µM | 3.44 µM | 1.12 µM | 79.7 µM | 0.928 µM | 5.01 µM | 0.0601 µM | 1.78 µM | 0.363 µM | > 100 µM | 0.0725 µM |  | 0.619 µM | > 100 µM | 1.03 µM | > 100 µM
4 | Cc1ccc(Cl)cc1Nc1nc(C(F)(F)F)ccc1C(=O)Nc1cccc(C(F)(F)F)c1 | 2.8 µM | 11 µM | 2.77 µM | 10 µM | 3.56 µM | 13.3 µM | 6 µM | 25.5 µM | 2.84 µM | 12.7 µM | 5.22 µM | 17.1 µM | 2.13 µM | 7.66 µM | 2.07 µM | 13.4 µM | 1.69 µM | 13.4 µM | 3.58 µM | 17.8 µM
5 | CCCS(=O)(=O)Nc1ccc(F)c(C(=O)c2c[nH]c3ncc(-c4ccc(Cl)cc4)cc23)c1F | 4.01 µM and 5.42 µM | 23.7 µM and > 10 µM | 3.72 µM and > 8.33 µM | 16.1 µM and > 10 µM | 5.2 µM and > 7.63 µM | 19.2 µM and > 10 µM | 9.23 µM and > 5.91 µM | 36.7 µM and > 10 µM | 4.96 µM and 4.79 µM | 15.1 µM and > 10 µM | 0.0241 µM and 0.034 µM | 0.496 µM and 0.485 µM | 6.75 µM and > 10 µM | 31.6 µM and > 10 µM | 2.98 µM and 6.01 µM | 16.7 µM and > 10 µM | 3.52 µM and 3.63 µM | 14.4 µM and > 10 µM | 6.13 µM and > 7.33 µM | 25.7 µM and > 10 µM
6 | CC[C@@]1(O)C(=O)NCc2c1cc1n(c2=O)Cc2cc3ccccc3nc2-1 | 0.253 µM |  | 0.3 µM | 2.2 µM | 9.04 µM | > 100 µM | > 100 µM | > 100 µM | 1.77 µM | 13.1 µM | 1.87 µM | > 100 µM | 2.92 µM | > 48.2 µM | 7.57 µM | > 100 µM | 12.1 µM | > 100 µM | 35.5 µM | > 100 µM
7 | COc1ccc(-c2oc(=O)ccc2C#Cc2cc(OC)c(OC)c(OC)c2)cc1O | 2.79 µM | > 100 µM | 3.17 µM | > 100 µM | 27 µM | > 100 µM | 50.5 µM | > 100 µM | 30.9 µM | > 100 µM | 13.5 µM | 63.5 µM | 24.4 µM | > 100 µM | 23.3 µM | > 100 µM | 39.9 µM | > 100 µM | 67 µM | > 100 µM
8 | CN1/C(=C\C(I)C(I)C2=[N+](C)c3ccccc3C2(C)C)C(C)(C)c2ccccc21 (stereo not drawn) | 0.226 µM | 31 µM | 0.243 µM | 2.07 µM | 0.119 µM | 3.17 µM | 0.2 µM | 24.2 µM | 0.601 µM | 9.75 µM | 0.303 µM | 14.2 µM | 13.3 µM | 42.2 µM | 0.177 µM | 12.3 µM | 0.464 µM | 42.5 µM | 0.25 µM | 22.5 µM
9 | CC(CN=C(CC(=O)c1ccc(Br)cc1)c1ccccc1)N=C(CC(=O)c1ccc(Br)cc1)c1ccccc1 (stereo not drawn) | 20.1 µM | > 100 µM | 7.95 µM | > 100 µM | 42.1 µM | > 100 µM | 67.3 µM | > 100 µM | 1.66 µM | > 100 µM | 32 µM | > 100 µM | 14.2 µM | > 100 µM | 29.4 µM | > 100 µM | 3.37 µM | > 100 µM | 8.15 µM | > 100 µM
10 | O=C1NC(=O)/C(=C/C=C/c2ccccc2)S1 | 2.01 µM | > 100 µM | 2.08 µM | > 72 µM | 2.34 µM | 58.1 µM | 14 µM | > 80.8 µM | 2.81 µM | 30.4 µM | 0.49 µM | 27 µM | 2.87 µM | > 100 µM | 19.4 µM | > 100 µM | 12.2 µM | 57.5 µM | 80.8 µM | > 100 µM
11 | C/C(=C\c1ccc(Cl)cc1)C(C)(C)C(=O)O |  | > 100 µM |  | > 100 µM |  | > 100 µM |  | > 100 µM |  | > 100 µM |  | > 100 µM |  | > 100 µM |  | > 100 µM |  | > 100 µM |  | > 100 µM
12 | Cc1ccc2c(c1)C(=O)c1c-2n(CCCN)c(=O)c2cc([N+](=O)[O-])ccc12 | 0.00683 µM | 0.0559 µM | 0.0244 µM | 0.129 µM | 0.746 µM | 1.57 µM | 0.54 µM | 1.33 µM | 0.144 µM | 0.811 µM | 0.522 µM | 1.11 µM | 0.594 µM | 1.45 µM | 0.437 µM | 1.17 µM | 0.176 µM | 0.985 µM | 0.605 µM | 1.26 µM
